From publication PMC10574185, “Encapsulation and Biological Activity of Hesperetin Derivatives with HP-β-CD” (Molecules, 2023) come the findings set out here.

One series deals with HaCaT cells. Kind of series: MTT cytotoxicity assay on HaCaT keratinocytes. The series is classed as cell-based, human. The note with it: for IC50: Homo sapiens. The method, then: HaCaT keratinocyte cells were exposed to chemical compounds at nine different concentrations (from 3.9 to 995.6 µg/mL) in four replicates of each concentration for 24 and 48 h.
All compounds were dissolved in sterile DMSO (Merck Life Science, Warsaw, Poland) and were sterile-filtered with 0.22 µm pore size sterile disposable syringe filters.
HaCaT cell line (the normal immortalised human keratinocytes) used in the study derived from the 35th passage (the original material created by Prof. Dr. Petra Boukamp and Dr. Norbert Fusenig) was purchased from Cell Line Service GmbH (Eppelheim, Germany). The cells were cultured and propagated as described previously.
The cytotoxicity was assessed with MTT assay according to methodology applied previously.
The following final concentrations (in four replicates per experiment) of the test compounds were tested (µg/mL): 3.9; 7.8; 15.6; 31.1; 62.2; 124.5; 248.9; 497.8, and 995.6. […] Three independent experiments were conducted. The vehicle was cells in the culture medium. The assay was conducted for 24 h and 48 h.
On the technique in general: Tetrazolium assays rely on reduction of a dye to a coloured formazan, in cell work by metabolically active cells.

The test system of series [1] is Salmonella Choleraesuis ATCC 7001. The series can be described thus: Antagonistic activity, diffusion-well method. It counts as cell-based. To be noted: Salmonella enterica, compounds at 2.5 µM, wells 8 mm, 37 °C, 18 h. On the procedure:
(§1) The antimicrobial activity of the HESP, ligands ([…], and HTSC), and complexes with HP-β-CD were tested against Gram-positive bacteria (Listeria monocytogenes ATCC 19111, Listeria monocytogenes ATCC 19112, Listeria monocytogenes ATCC 19115, Staphylococcus aureus ATCC 29737, Staphylococcus aureus ATCC 25923, Staphylococcus aureus ATCC 27734) and Gram-negative bacteria (Escherichia coli ATCC 11303, Escherichia coli ATCC 35218, Salmonella Typhimurium, ATCC 14028, Salmonella Enteritidis ATCC 13076, Salmonella Choleraesuis ATCC 7001). The strains were activated from cryobanks by passaging them twice onto a Nutrient Broth (Merck, Darmstadt, Germany). All bacteria were grown for 24 h at 37 °C. Antagonistic activity of the following chemical compounds: […], and […] determined by the diffusion-well method. The test strains were plated on Mueller-Hinton Agar (Merck, Darmstadt, Germany) in the form of a surface layer of bacteria according to the procedures recommended by the European Committee on Antimicrobial Susceptibility Testing EUCAST [74]. The detailed methodology was described in the paper by Sykuła et al.. Bacterial inoculum was prepared from an overnight solid culture. The inoculum density was 1-2 × 10^8 CFU/mL, which corresponds to a McFarland standard of 0.5. The samples of the test compounds were dissolved in 5% (w/w) DMSO to obtain a concentration of 500 μM, and were sterilized using filtration (filter pore width 0.2 μm; (Sartorius AG, Gottingen, Germany). The bacteria inoculum test culture (0.1 mL) smear conducted was on sterile Mueller-Hinton Agar (Merck, Darmstadt, Germany) plates. […] A total of 50 μL of the prepared solutions of the tested compounds at a concentration of 500 μM were added to the wells. The plates prepared in this way were incubated at 37 °C for 18 h. After this time, zones of growth inhibition were read and the result was given in mm. The experiment was carried out in two independent repetitions. The results were expressed in average values and standard deviation. The results were analyzed using a one-way ANOVA and post-hoc Tukey's test.

Series [2] concerns Listeria monocytogenes ATCC 19115. The series can be described thus: Antagonistic activity, diffusion-well method. The series is classed as cell-based. To be noted: ATCC19115, compounds at 2.5 µM, wells 8 mm, 37 °C, 18 h. The method, then: as §1
In series [3] the test system is Staphylococcus aureus ATCC 27734. Kind of series: Antagonistic activity, diffusion-well method. The note with it: ATCC27734, compounds at 2.5 µM, wells 8 mm, 37 °C, 18 h. The series is classed as cell-based. The method, then: as §1
Series [4] concerns Salmonella Enteritidis ATCC 13076. Kind of series: Antagonistic activity, diffusion-well method. The series is classed as cell-based. To be noted: Salmonella enterica, compounds at 2.5 µM, wells 8 mm, 37 °C, 18 h. On the procedure: as §1
Series [5] has as its system Salmonella Typhimurium ATCC 14028. Kind of series: Antagonistic activity, diffusion-well method. The series is classed as cell-based. To be noted: Salmonella enterica, compounds at 2.5 µM, wells 8 mm, 37 °C, 18 h. The method, then:
as §1

Series [6] concerns Listeria monocytogenes ATCC 19112. Kind of series: Antagonistic activity, diffusion-well method. The series is classed as cell-based. The note with it: ATCC19112, compounds at 2.5 µM, wells 8 mm, 37 °C, 18 h. On the procedure: as §1
In series [7] the test system is Listeria monocytogenes ATCC 19111. Kind of series: Antagonistic activity, diffusion-well method. The note with it: ATCC19111, compounds at 2.5 µM, wells 8 mm, 37 °C, 18 h. The series is classed as cell-based. On the procedure: as §1
Series [8] deals with Staphylococcus aureus ATCC 25923. Kind of series: Minimal inhibition concentration (dilution + diffusion-well). It counts as cell-based. The note with it: ATCC25923, 37 °C, 18 h. On the procedure: The MIC was performed for compounds and strains sensitive to their action in the antagonistic test. Minimum inhibitory concentration was determined by combining the dilution method with the diffusion-well method. Test compounds at a concentration of 500 μM were prepared in 5% (w/w) DMSO. Surface layer of microorganisms, against which antagonistic activity was noted, were prepared in the same way as for the antagonistic test. Then, two-fold sequential dilutions of the test compounds in the range of 500 µM to 62.5 µM were prepared. Wells with a diameter of 8 mm cut in the Mueller–Hinton Agar (Merck, Darmstadt, Germany) with the test strain were added with 50 µL of the prepared dilutions, which corresponded to the following concentrations of the tested compounds: […], 1.25 mM, 0.625 mM, and […]. Petri dishes prepared in this way were incubated at 37 °C for 18 h. After a given time, the MIC value was read. The MIC concentration expressed in µM was the first concentration of the tested compounds at which growth inhibition of the test strain was observed.

Series [9] in a line: FRAP assay (ferric-ion reducing antioxidant power). To be noted: mean ± SD. The method, then:
To evaluate the antioxidant ability of the tested systems, antioxidant analysis was performed. Antioxidants can scavenge hydroxyl radicals in two ways: by reacting directly with hydroxyl radicals (DPPH^•, ABTS^•+) or indirectly inhibiting the formation of hydroxyl radicals by chelating metal ions involved in the production of hydroxyl radicals. The antioxidant activity of the systems studied was investigated by using DPPH^• scavenging, ABTS^•+ scavenging ability, and Fe^2+-chelating ability. In this study, the antioxidant activity of pure hesperetin and its Schiff bases (HHSB, HIN, and HTSC) and HP-β-CD complexes were compared, and the positive control was Trolox.
The antioxidant capacity determined by the FRAP assay (the ability of plasma to reduce iron) was carried out using a modification of the FRAP assay. The FRAP reagent consisted of the following solutions: 300 mM acetate, pH 3.6 glacial acetic acid buffer, 20 mM ferric chloride (FeCl3×6H2O), and 10 mM 2,4,6-tripyridyl-S-triazine (TPTZ) prepared in 40 mM HCl. The aforementioned solutions were mixed together in a ratio of 10:1:1 (v/v/v). The FRAP assay consisted of adding 15 µL of sample to 1.98 mL of reagent and incubating the mixture at 37 °C for 4 min. Absorbance measurement was recorded at 593 nm against a blank. Total antioxidant capacity was estimated relative to a standard of known FRAP concentration, ferrous sulfate.

[10] abbreviates: MTT, 24 h exposure, read-out: IC50 After 24 h.
Where [11] appears, read: MTT, 48 h exposure, read-out: IC50 After 48 h.

In brackets after ≈: the same amount, converted by molar mass. Several values for one entry are separate records, joined by “and”; a condition that tells them apart may be missing. Identical values can stand only once. Like-named read-outs stand apart in the source and are kept apart here.

By IC50 is commonly meant the midpoint of a concentration-inhibition curve. The term zone of inhibition denotes the extent of the growth-free halo in a diffusion test. Lower therefore signals a weaker effect on the plate. One may read the MIC as the lowest concentration that inhibits growth of the organism. On to `COc1ccc(C2C/C(=N\NC(=O)c3ccncc3)c3c(O)cc(O)cc3O2)cc1O` (racemic) [HIN], for which the “Non-cytotoxic concentration (IC0)” value with HaCaT cells (24 h exposure) is not above 7.8 µg/mL; in the series on HaCaT cells (48 h exposure) it was not above 15.6 µg/mL. The results for the concentration for half-maximal inhibition (IC50) with HaCaT cells (setting [10]) and in the series on HaCaT cells (setting [11]) were 350 µg/mL (≈ 831 µM) and 59.7 µg/mL (≈ 142 µM), respectively. Besides, the zone of inhibition at 2.5 µM in [1], in series [2], in series [3], in [4], in series [5] and in [6] was 0 mm in each case. Further, in series [7], the zone of inhibition at 2.5 µM amounted to 0 mm. For the same compound, the MIC in series [8] is 2.5 µM.
With `COc1ccc(C2C/C(=N\NC(=O)c3ccccc3)c3c(O)cc(O)cc3O2)cc1O` (racemic) [HHSB], the “cytotoxicity at the lowest concentration tested” value in the series on HaCaT cells (48 h, 3.9 µg/mL) is listed as 54.8% ± 5.4. For the same compound, in the series on HaCaT cells (48 h, 995.6 µg/mL), the “cytotoxicity at the highest concentration tested” value is reported as 79.1% ± 6.6. The 50% inhibitory concentration (IC50) in the series on HaCaT cells (setting [10]) turned out to be 418 µg/mL (≈ 993 µM). For the same compound, the “IC70 after 48 h” value in the series with HaCaT cells (MTT, 48 h exposure, IC50 impossible to count) was 163.5 µg/mL and 163.5 ^b µg/mL. In addition, the zone of inhibition at 2.5 µM in series [1], in series [2], in series [3], in series [4], in series [5] and in series [6] was 0 mm each time. The same compound registered a zone of inhibition at 2.5 µM in series [7] of 0 mm. In addition, the MIC in series [8] came out at 2.5 µM. The FRAP antioxidant activity in series [9] is listed as 0.000005 ± 0.00005 mmolFe(II)/L.
Take `COc1ccc(C2CC(=O)c3c(O)cc(O)cc3O2)cc1O` (centres unmarked) [Hesperetin, 3′,5,7-Trihydroxy-4′-methoxyflavanone]: in the series on HaCaT cells (48 h exposure), the “Non-cytotoxic concentration (IC0)” value was not above 3.9 µg/mL. In addition, the IC50 in the series on HaCaT cells (setting [10]) stood at 221 µg/mL (≈ 731 µM); in the series on HaCaT cells (setting [11]), 150 µg/mL (≈ 496 µM). Besides, the zone of inhibition at 2.5 µM in [1], in [2], in series [3], in series [4], in [5] and in series [6] was 0 mm in each case. The zone of inhibition at 2.5 µM in [7] is 0 mm. The FRAP antioxidant activity in series [9] was 0.0005 ± 0.0005 mmolFe(II)/L.
Take `COc1ccc(C2CC(=NNC(N)=S)c3c(O)cc(O)cc3O2)cc1O` (centres unmarked) [HTSC, N-[2,3-dihydro-5,7-dihydroxy-2-(3-hydroxy-4-methoxyphenyl)chromen-4-ylidene]thiosemicarbazide]: the “Non-cytotoxic concentration (IC0)” value in the series with HaCaT cells (48 h exposure) is given as not above 3.9 µg/mL. Moreover, the IC50 in the series on HaCaT cells (setting [11]) amounted to 11.9 µg/mL (≈ 31.7 µM). The zone of inhibition at 2.5 µM in series [1], in series [2], in [3], in series [4], in series [5] and in series [6] was 0 mm in each case. The zone of inhibition at 2.5 µM in series [7] came to 0 mm. Further, the MIC in series [8] is 1.25 µM. Moreover, the FRAP antioxidant activity in [9] is listed as 0.000005 ± 0.00005 mmolFe(II)/L.
